# Values joined by “and” are separate entries in the source; they are usually repeats but may differ in a detail not shown here. Identical values can stand only once.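 Step 1: Grow cells in 96-well plates. Step 2: Expose to compound for 48 hours at 5 concentrations. Step 3: Interpolate endpoints linearly; if unreached, use highest concentration. GI50 is the concentration that inhibits growth by half. TGI denotes the concentration required for complete inhibition of growth.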
# Tested on: SK-MEL-2 melanoma
# Assay: DTP human tumour cell line panel, 48 h
SMILES,GI50,TGI
C=CC12CCN(CC1)C(C(O)c1ccnc3ccc(OC)cc13)C2 (centres undefined),> 100 µM,> 100 µM
O=C(Nc1nc(-c2c[nH]c3ccccc23)cs1)c1n[nH]c(=O)c2ccccc12,13.4 µM,> 100 µM
CN(C)CCN1CCC(Cc2ccccc2)CC1,> 80 µM,> 80 µM
COc1cc2c3c(n(C)c(=O)c2cc1OC)-c1cc2c(cc1C3=O)OCO2,,> 72.2 µM
COc1ccc(/C=C\c2cc(OC)c(OC)c(OC)c2)cc1OCC(=O)O,,> 53.9 µM
CCOc1ccc(NC(=O)CC2SC(=Nc3ccc(C)cc3C)NC2=O)cc1 (centres undefined),,> 100 µM
CCSc1nc(N=Cc2ccccc2O)c2cn[nH]c2n1,39.9 µM,> 100 µM
O=C(Nc1ncc(Cc2cccc(C(F)(F)F)c2)s1)c1ccc2c(c1)OCCO2,0.943 µM,> 48.6 µM
NC(=O)c1cc(I)ccc1NC(=O)/C=C/c1ccccc1,2.25 µM,> 56.6 µM
COc1ccc(CNc2c3ccccc3nc3ccccc23)cc1F,3.45 µM,13.4 µM
CCn1cc(-c2ccnc3[nH]c(-c4cccc(CN(C)C)c4)cc23)c(-c2ccc(NC(=O)N(C)C)cc2)n1,2.43 µM and 2.19 µM,9.87 µM and > 10 µM
O=C1C/C(Br)=C\c2ccccc2-c2ccccc21,,12.2 µM
CNc1cc2oc(=O)cc(C)c2cc1C,,> 100 µM

# Tested on: SR leukemia
# Assay: DTP human tumour cell line panel, 48 h
SMILES,GI50,TGI
COC(=O)C1=CN(CC2=CC(=O)C(C)=CC2=O)C=C(C(=O)OC)C1c1ccccc1OC,4.01 µM,19.6 µM
COC(=O)/C=C/c1cc(OC(C)=O)c2c(c1)C(C(=O)OC)C(c1ccc(OC(C)=O)c(OC(C)=O)c1)O2 (centres undefined),0.0303 µM,30.4 µM
O=C(O)c1ccc(CNCc2ccccc2)cc1,,> 100 µM
Cc1cc2c(cc1C)[n+](=O)cc(C(=O)C/C(=N/NC(=S)NN)C(=O)Nc1cccc(C(F)(F)F)c1)n2[O-],,> 100 µM
COCOCCC#CCO,,> 100 µM
CC(C)=CCC1=C(O)c2ccccc2C(=O)C1=O,,> 100 µM
O=[N+]([O-])c1ccccc1N=Nc1c(O)[nH]c2c(Cl)cc(Cl)cc12,,22.6 µM
NC(=S)N/N=C/c1ncccc1O,0.585 µM,28.8 µM and > 148 µM
O=C(CC(=O)Nc1ccccc1)NNC(Sc1ccccc1)c1cc(N=Nc2ccc(Br)cc2)ccc1O (centres undefined),,> 10 µM
CCOc1ccc(OCC(=O)O)c2c1CCCC2=O,,> 100 µM
Cc1cc(C(=O)CSC(=S)SC(C)(C)C)ccc1Cl,,46.9 µM
C=CC12CCN(CC1)C(C(O)c1ccnc3ccc(OC)cc13)C2 (centres undefined),> 100 µM,> 100 µM
O=C(Nc1nc(-c2c[nH]c3ccccc23)cs1)c1n[nH]c(=O)c2ccccc12,1.61 µM,
CN(C)CCN1CCC(Cc2ccccc2)CC1,67.3 µM,> 80 µM
COc1cc2c3c(n(C)c(=O)c2cc1OC)-c1cc2c(cc1C3=O)OCO2,,11.8 µM
COc1ccc(/C=C\c2cc(OC)c(OC)c(OC)c2)cc1OCC(=O)O,,> 100 µM
CCOc1ccc(NC(=O)CC2SC(=Nc3ccc(C)cc3C)NC2=O)cc1 (centres undefined),,> 100 µM
CCSc1nc(N=Cc2ccccc2O)c2cn[nH]c2n1,7.31 µM,> 100 µM
O=C(Nc1ncc(Cc2cccc(C(F)(F)F)c2)s1)c1ccc2c(c1)OCCO2,0.21 µM,> 100 µM
NC(=O)c1cc(I)ccc1NC(=O)/C=C/c1ccccc1,0.419 µM,
COc1ccc(CNc2c3ccccc3nc3ccccc23)cc1F,2.49 µM,9.37 µM
CCn1cc(-c2ccnc3[nH]c(-c4cccc(CN(C)C)c4)cc23)c(-c2ccc(NC(=O)N(C)C)cc2)n1,0.122 µM and 0.031 µM,6.58 µM and 3.28 µM
O=C1C/C(Br)=C\c2ccccc2-c2ccccc21,,2.73 µM
CNc1cc2oc(=O)cc(C)c2cc1C,,> 100 µM

# Tested on: UACC-257 melanoma
# Assay: DTP human tumour cell line panel, 48 h
SMILES,GI50,TGI
COC(=O)C1=CN(CC2=CC(=O)C(C)=CC2=O)C=C(C(=O)OC)C1c1ccccc1OC,22.3 µM,44.3 µM
COC(=O)/C=C/c1cc(OC(C)=O)c2c(c1)C(C(=O)OC)C(c1ccc(OC(C)=O)c(OC(C)=O)c1)O2 (centres undefined),13.7 µM,> 77.6 µM
O=C(O)c1ccc(CNCc2ccccc2)cc1,,> 100 µM
Cc1cc2c(cc1C)[n+](=O)cc(C(=O)C/C(=N/NC(=S)NN)C(=O)Nc1cccc(C(F)(F)F)c1)n2[O-],,> 100 µM
COCOCCC#CCO,,> 100 µM
CC(C)=CCC1=C(O)c2ccccc2C(=O)C1=O,> 100 µM and 28.6 µM,> 100 µM
O=[N+]([O-])c1ccccc1N=Nc1c(O)[nH]c2c(Cl)cc(Cl)cc12,,> 100 µM
NC(=S)N/N=C/c1ncccc1O,,8.97 µM and 72.7 µM
O=C(CC(=O)Nc1ccccc1)NNC(Sc1ccccc1)c1cc(N=Nc2ccc(Br)cc2)ccc1O (centres undefined),,> 10 µM
CCOc1ccc(OCC(=O)O)c2c1CCCC2=O,,> 100 µM
Cc1cc(C(=O)CSC(=S)SC(C)(C)C)ccc1Cl,,34.4 µM
C=CC12CCN(CC1)C(C(O)c1ccnc3ccc(OC)cc13)C2 (centres undefined),74.2 µM,> 100 µM
O=C(Nc1nc(-c2c[nH]c3ccccc23)cs1)c1n[nH]c(=O)c2ccccc12,38.4 µM,> 100 µM
CN(C)CCN1CCC(Cc2ccccc2)CC1,> 80 µM,> 80 µM
COc1cc2c3c(n(C)c(=O)c2cc1OC)-c1cc2c(cc1C3=O)OCO2,,> 100 µM
COc1ccc(/C=C\c2cc(OC)c(OC)c(OC)c2)cc1OCC(=O)O,,> 100 µM
CCOc1ccc(NC(=O)CC2SC(=Nc3ccc(C)cc3C)NC2=O)cc1 (centres undefined),,> 100 µM
CCSc1nc(N=Cc2ccccc2O)c2cn[nH]c2n1,56.7 µM,> 100 µM
O=C(Nc1ncc(Cc2cccc(C(F)(F)F)c2)s1)c1ccc2c(c1)OCCO2,5.87 µM,> 100 µM
NC(=O)c1cc(I)ccc1NC(=O)/C=C/c1ccccc1,14.3 µM,53.3 µM
COc1ccc(CNc2c3ccccc3nc3ccccc23)cc1F,3.98 µM,16.7 µM
CCn1cc(-c2ccnc3[nH]c(-c4cccc(CN(C)C)c4)cc23)c(-c2ccc(NC(=O)N(C)C)cc2)n1,4.76 µM and > 10 µM,21.7 µM and > 10 µM
O=C1C/C(Br)=C\c2ccccc2-c2ccccc21,,14.5 µM
CNc1cc2oc(=O)cc(C)c2cc1C,,> 100 µM
